This note sets out measurements from PubChem BioAssay (NCI).

SMILES strings stand for the structures. Several values for one entry are separate records, joined by “and”; a condition that tells them apart may be missing. Equal entries are not always repeated.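 Test compounds were applied to cells in 96-well plates for 48 hours at 5 doses. Abbreviation: GI50, concentration required for 50% inhibition of growth. TGI denotes the concentration required for complete inhibition of growth.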

Common to all, as to test: inhibition of tumour cell growth, NCI panel, 48 h
Assay [1] relates to HCC-2998 colon.
Assay [2] has as its system MDA-MB-231 breast.
Assay [3] concerns DU-145 prostate.
Assay [4] has as its system SNB-75 CNS.
Assay [5] has as its system A498 renal.
In assay [6] the test system is MDA-MB-435.
In assay [7] the test system is NCI-H226 lung.
Assay [8] has as its system HS 578T breast.
In assay [9] the test system is TK-10 renal.
Assay [10] has as its system SF-539 CNS.

As to `Clc1ccc(CO/N=C(\Cn2ccnc2)c2ccc(Cl)cc2Cl)c(Cl)c1`, the GI50 was 1.73 µM in [1]; 1.32 µM in [2]; 1.96 µM in [3]; 1.65 µM in assay [4]; 1.32 µM in assay [5]; 1.66 µM in assay [6]. In addition, the GI50 in assay [7] is 1.42 µM; in assay [8], 2.73 µM; in assay [9], 1.81 µM; in [10], 1.86 µM. In addition, the TGI in assay [1] turned out to be 3.42 µM; in assay [2], 2.75 µM; in assay [3], 3.66 µM; in assay [4] it was 3.22 µM; in [5], 2.65 µM; in assay [6] it was 3.19 µM. For the same compound, the TGI is 3.01 µM in [7], greater than 100 µM in [8], 3.25 µM in [9] and 3.34 µM in assay [10].

As for `Cc1cc(C)nc(SC2=C(Nc3cccc(Cl)c3)C(=O)N(Cc3ccccc3)C2=O)n1`, the GI50 in assay [1], in assay [2], in [3], in assay [4], in assay [5] and in [6] was greater than 170 µM in each case. Further, the GI50 in [7] was 0.729 µM; in assay [8] it was greater than 170 µM; in assay [9], greater than 170 µM; in assay [10], greater than 170 µM. Besides, the TGI in assay [1], in assay [2], in assay [3], in [4], in [5] and in [6] was greater than 170 µM throughout. Also, the TGI in [7] is 9.43 µM; in [8] it was greater than 170 µM; in assay [9], greater than 170 µM; in assay [10], greater than 170 µM.

For the compound `COC(=O)c1c2c(c(C)[n+]([O-])c1C)C(=O)C(NCc1ccc(F)c(F)c1)=CC2=O`, the GI50 was 2.26 µM in assay [1]; 1.75 µM in assay [2]; 2.66 µM in [3]; 2.15 µM in assay [4]; 1.34 µM in [5]; 1.7 µM in [6]. In addition, the GI50 in assay [7] is 2.69 µM; in assay [8] it was 2.76 µM; in assay [10] it was 1.92 µM. The TGI in assay [1] worked out at 5.35 µM; in assay [2], 6.09 µM; in [3], 7.61 µM; in [4], 7.58 µM; in [5] it was 5.65 µM; in [6], 3.15 µM. In addition, the TGI in assay [7] stood at 8.14 µM; in assay [8], 11.9 µM; in [10], 4.12 µM.

For the compound `COc1cc2c(cc1OC)[C@@]1(C)C(=O)c3cc4c(cc3[C@H]1N(C)C2=O)OCO4`, the GI50 is 74.7 µM in assay [1]; 25 µM in assay [2]; 58.1 µM in assay [3]; 18.6 µM in assay [5]; greater than 100 µM in [6]; 44.1 µM in assay [7]. Besides, the GI50 was 41.1 µM in assay [8], 67.3 µM in assay [9] and 24 µM in [10]. In addition, the TGI in assay [1] was greater than 100 µM; in assay [2], greater than 100 µM; in assay [3], greater than 100 µM; in [5] it was 90.7 µM; in [6], greater than 100 µM; in [7], greater than 100 µM. The TGI in [8] was greater than 100 µM; in [9] it was greater than 100 µM; in [10], 75.7 µM.

`Nc1ccn([C@@H]2C=C(CO)[C@@H](O)[C@H]2O)c(=O)n1`: the GI50 in assay [2] is 0.413 µM; in assay [3], 0.05 µM; in assay [5], 0.242 µM; in [6] it was 0.0377 µM; in assay [7], 0.501 µM; in assay [8], 4.56 µM. For the same compound, in [9], the GI50 was 0.184 µM. The TGI is 500 µM in assay [2]; 500 µM in assay [3]; 128 µM and > 625 µM in [4]; 500 µM in assay [6]; 493 µM in assay [7]; 431 µM in [9]. Further, the TGI in assay [10] was 266 µM and > 625 µM.

Take `COc1cnc2c(c1)C(=O)c1c-2n(CCCN2CCN(C)CC2)c(=O)c2cc(Cl)ccc12`: the GI50 in assay [1] was 11.3 µM; in assay [2], 10.7 µM; in assay [3] it was 3.18 µM; in assay [4], 0.932 µM; in assay [5], 0.959 µM; in assay [6], 1.53 µM. The results for the GI50 in assay [7], in [8] and in [10] were 12.3 µM, 12.9 µM and 2.15 µM, respectively. For the same compound, the TGI came to 26.8 µM in [1]; 23.2 µM in assay [2]; 19.8 µM in assay [3]; 17.6 µM in [4]; 9.61 µM in assay [5]; 3.14 µM in [6]. In addition, the figures for the TGI in assay [7], in assay [8] and in assay [10] were 36.2 µM, 36.2 µM and 5.31 µM, respectively.

Consider `CC(C)=CCC/C(C)=C/CC/C(=C/COP(=O)(OCc1ccc([N+](=O)[O-])o1)N(C)CCCCCl)C(C)(C)C` (configuration not stated), for which the GI50 was 0.0486 µM in assay [1]; 1.61 µM in [3]; 15.6 µM in assay [4]; 0.125 µM in assay [5]; 10.1 µM in assay [6]; 1.72 µM in assay [9]. In [10], the GI50 is 4.25 µM. Moreover, the TGI in [1] was 2.29 µM; in assay [2] it was 1.03 µM; in assay [3] it was 9 µM; in [4], 40 µM; in [5] it was 2.16 µM; in [6], 30.8 µM. Moreover, the values for the TGI in assay [8], in assay [9] and in [10] were 1.06 µM, 22.2 µM and 10.6 µM, respectively.

As for `C[C@]12CCC(=O)C=C1CC[C@@H]1[C@@H]2CC[C@]2(C)C(=O)/C(=C/c3cccc(OCCN4CCOCC4)c3)C[C@@H]12`, the GI50 in assay [2] is 11.6 µM; in [3] it was 17.9 µM; in assay [4] it was 12 µM; in assay [5], 18.5 µM; in assay [6], 4.92 µM; in assay [7] it was 14.2 µM. The GI50 in assay [8] is 16.6 µM; in assay [9], 17.7 µM; in assay [10], 10.5 µM. Further, the TGI in assay [2] was 42.3 µM; in assay [3] it was 51.5 µM; in assay [4], 31.9 µM; in assay [5] it was 36.1 µM; in assay [6], 21.8 µM; in assay [7] it was greater than 100 µM. For the same compound, the values for the TGI in assay [8], in assay [9] and in assay [10] were 66.7 µM, greater than 100 µM and 23.7 µM, respectively.
